# Data published in patent publication US11236055B2 (Venenum Biodesign, LLC, priority 2016, dated 2022).
# Experiments:
# mouse TGR5 receptor = target: T1, mouse TGR5 receptor (Mus musculus, UniProt Q80SS6); assay: Mouse TGR5 cAMP production assay (HTRF, Cisbio cAMP HiRange); type: cell-based; conditions: HEK293-EBNA cells overexpressing mouse TGR5, HTRF cAMP HiRange; coded A-D
# T1 construct: expressed in transfected cells; host or cells: HEK293-EBNA (293 c18, ATCC CRL10852), Hygromycin B selection
# T1 sequence (Q80SS6 1-329): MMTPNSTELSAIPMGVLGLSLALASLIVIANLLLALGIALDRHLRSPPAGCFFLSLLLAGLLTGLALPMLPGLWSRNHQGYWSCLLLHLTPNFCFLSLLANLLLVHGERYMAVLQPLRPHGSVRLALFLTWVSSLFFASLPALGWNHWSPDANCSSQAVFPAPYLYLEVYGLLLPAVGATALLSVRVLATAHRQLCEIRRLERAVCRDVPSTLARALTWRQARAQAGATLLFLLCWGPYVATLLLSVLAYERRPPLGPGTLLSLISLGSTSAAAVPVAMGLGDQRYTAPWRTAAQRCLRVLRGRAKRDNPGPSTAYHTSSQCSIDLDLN
# Outline: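 cAMP read by HTRF competition after 1 h room-temperature compound exposure of mouse TGR5-overexpressing HEK293-EBNA cells. Cells were suspended in serum-free DMEM containing 500 μM IBMX; compounds ran as 12-point half-log dilutions in duplicate; EC50 derived.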
# Mouse STC-1 cells = assay: STC-1 GLP-1 assay; type: cell-based; conditions: GLP-1 secretion, 2 h, coded A-C, read-out: Mouse STC-1 HTRF GLP-1 Activity (EC50)
# Procedure: We evaluated Compounds of the present invention for their ability to induce GLP-1 production in mouse intestinal neuroendocrine tumor cells. Mouse STC-1 cells were cultured and maintained in high glucose DMEM (Sigma #5796) supplemented with 15% horse serum, 5% Fetal Bovine Serum (FBS), 1% penicillin/streptomycin, and 2 mM L-alanine L-glutamine (GlutaMax). Two days prior to analysis of GLP-1 secretion cells were harvested using Accutase (Sigma), spun down then resuspended in high glucose DMEM media containing 2 mM L-alanine L-glutamine (GlutaMax), 10% charcoal-dextran stripped FBS, and 50 μg/mL Gentamicin, at a density of 100,000 cells/mL. 100 μL of cell suspension was added to each well of a 96-well Poly-D-Lysine coated culture plate (Sigma; cat #2382493) and was incubated at 37° C. with 5% CO2.
# Compounds were initially diluted in 100% DMSO (12-point serial dilution by half logs) in a 96-well plate and then were further diluted 1:500 in Hanks' Balanced Salt Solution (HBSS) containing protease inhibitor cocktail, DPP-IV inhibitor, and 0.1% fatty acid free bovine serum albumin. On the day of the experiment cells were washed once with HBSS. After wash, 100 μL of test compound was added to each well. The plate was incubated at 37° C. with 5% CO2 for 2 h. Supernatants were collected and GLP-1 secretion was measured using the Cisbio™ Active GLP-1 HTRF Assay Kit (Cisbio). Briefly, Anti-GLP-1-d2 conjugate and Anti-GLP-1 Terbium Cryptate conjugate stock solutions were prepared as per kit instructions. The two solutions were pre-mixed and 10 μL were transferred to a 384-well low volume plate (Greiner; cat #784075). 10 μL of collected supernatants were added to wells already containing the conjugate solution. The plate was covered and incubated at room temperature overnight. The plate was read on an Envision™ plate reader (Perkin Elmer).
# In Table 34, EC50 values obtained from the STC-1 GLP-1 production assay for compounds of the present invention are summarized.
# human TGR5 receptor = target: T2, human TGR5 receptor (Homo sapiens, UniProt Q8TDU6); assay: Human TGR5 cAMP production assay; type: cell-based; conditions: human TGR5, luminescent cAMP assay; coded A-D; read-out: Human TGR5 Lum. cAMP Activity (EC50)
# T2 construct: host or cells: CHO-K1 (hTGR5-CHO cells)
# T2 sequence (Q8TDU6 1-330): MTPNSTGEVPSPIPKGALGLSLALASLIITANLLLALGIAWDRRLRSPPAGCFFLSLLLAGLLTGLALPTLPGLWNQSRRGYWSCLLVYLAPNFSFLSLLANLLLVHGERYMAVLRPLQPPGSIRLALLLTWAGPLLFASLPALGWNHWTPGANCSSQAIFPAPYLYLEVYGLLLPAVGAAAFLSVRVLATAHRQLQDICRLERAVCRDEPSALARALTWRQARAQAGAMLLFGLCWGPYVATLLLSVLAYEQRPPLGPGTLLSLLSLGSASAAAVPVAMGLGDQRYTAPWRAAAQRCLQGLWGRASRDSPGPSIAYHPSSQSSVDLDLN
# Outline: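 Intracellular cAMP read by luminescent enzyme-complementation (XS+) after overnight development, following 1 h room-temperature compound treatment of hTGR5-CHO-K1 cells in IBMX plus anti-cAMP antibody. Compounds tested as half-log dilution series; EC50 derived.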
# [1] = Pharmacokinetic profile in mice; type: in vivo; conditions: mouse; fasted male Hilltop mice, 10 mg/kg oral gavage, plasma, mean of three mice
# Procedure: Pharmacokinetic Profile in Mice
# In this series of studies, the pharmacokinetic profile characteristics of compounds of the present invention were evaluated. The plasma concentration levels of the compounds were monitored in the blood stream (i.e., plasma) after oral gavage using Cmax, and area under the curve (AUC).
# 8 week old male Hilltop mice were fasted overnight. Animals were randomized into groups (n=9) by body weight. Mice were dosed with 10 mg/kg compound (in 20% PEG400/80% 0.5% carboxymethylcellulose (medium viscosity)+0.25% Tween-80) at a volume of 10 mL/kg through oral gavage. Blood was collected via orbital bleeding at 0, 0.25, 0.5, 1, 2, and 4 h post-dose, with no one mouse having more than 3 blood draws. Blood was collected in EDTA coated tubes. Samples were stored at −20° C. until analysis.
# Quantitation of compound levels in plasma was accomplished by LC-MS/MS analysis. Standard curve and quality control samples were prepared in male CD-1 mouse plasma containing EDTA K^2+ as an anticoagulant at final concentrations ranging from 500 to 0.1 ng/mL. The plasma samples, calibration curve standards, and quality control samples were prepared in an identical method in a 96-well deep plate (1 mL) with a quenching solution (1:1 mixed acetonitrile:methanol containing the internal standard Reserpine @ 400 ng/mL). Low volume samples were supplemented with CD-1 mouse plasma. The plate was mixed on multi-tube votex for 1 min and centrifuged at 4000 rpm for 30 min at 4° C. (Sorvall® Super T21) before LC-MS/MS analysis. LC conditions were developed and optimized based on each compound as needed. The outlet of the column was coupled to AB Sciex 4000 QTrap Mass Spectrometer (AB Sciex, Brugg Switzerland). Detection was carried out using multiple reaction monitoring mode with positive-ion detection focusing. The pharmacokinetic parameters were derived from the plasma-time data and calculated using the standard non-compartmental method with WinNonlin (Pharsight, Mountain View, Calif.) or PK Solver (Comp. Meth. Prog. Biomed. (2010), 99, 306-314).
# Values reported are the mean plasma concentration of three mice.
Structure (SMILES),EC50 (mouse TGR5 receptor) [nM],EC50 (Mouse STC-1 cells) [nM],EC50 (human TGR5 receptor) [nM],Cmax [1] [ng/mL]
"Cc1cnccc1-c1cccc(C(NS(=O)(=O)c2ccccc2C(F)(F)F)C2CC2)c1 (racemic) [Compound 5AV, (+/−)N-(cyclopropyl(3-(3-methylpyridin-4-yl)phenyl)-methyl)-2-(trifluoromethyl)benzenesulfonamide]",100 to 999,1000 to 30000,< 100,
COc1cnccc1-c1cccc(C(C)(C)NS(=O)(=O)c2cccc(Cl)c2Cl)c1 [Compound 2BC],< 100,1000 to 30000,< 100,
COc1cnccc1-c1cccc(C(C)(C)NS(=O)(=O)c2cccc(Cl)c2C)c1 [Compound 2BL],< 100,100 to 999,< 100,
"CC[C@H](NS(=O)(=O)c1ccccc1C(F)(F)F)c1cccc(-c2ccncc2C)c1 [Compound 5AW, (S)-N-(1-(3-(3-methylpyridin-4-yl)phenyl)propyl)-2-(trifluoromethyl)benzenesulfonamide]",< 100,1000 to 30000,< 100,
"COC(=O)CN(C(C)(C)c1cccc(-c2ccncc2C)c1)S(=O)(=O)c1ccccc1C(F)(F)F [Compound 13, Methyl 2-(N-(2-(3-(3-methylpyridin-4-yl)phenyl)propan-2-yl)-2-(trifluoromethyl)phenylsulfonamido)acetate]",100 to 999,1000 to 30000,< 100,
"COCCN(C(C)(C)c1cccc(-c2ccncc2C)c1)S(=O)(=O)c1ccccc1C(F)(F)F [Compound 13AA, N-(2-methoxyethyl)-N-(2-(3-(3-methylpyridin-4-yl)phenyl)propan-2-yl)-2-(trifluoromethyl)benzenesulfonamide]",100 to 999,100 to 999,< 100,
"CCOC(=O)CCCN(C(C)(C)c1cccc(-c2ccncc2C)c1)S(=O)(=O)c1ccccc1C(F)(F)F [Compound 14A, Ethyl 4-(N-(2-(3-(3-methylpyridin-4-yl)phenyl)propan-2-yl)-2-(trifluoromethyl)phenylsulfonamido)butanoate]",100 to 999,100 to 999,< 100,
"Cc1cnccc1-c1cccc(C(C)(C)N(CCCC(=O)NCC[N+](C)(C)C)S(=O)(=O)c2cccc(Cl)c2C)c1 [Compound 27AD, 2-(4-(3-chloro-2-methyl-N-(2-(3-(3-methylpyridin-4-yl)phenyl)propan-2-yl)phenylsulfonamido)butanamido)-N,N,N-trimethylethanaminium]",100 to 999,,< 100,25.4
Cc1cnccc1-c1cccc(C(C)(C)N(CCCNC(=O)NCCS(N)(=O)=O)S(=O)(=O)c2cccc(Cl)c2C)c1 [Compound 29AB],< 100,,< 100,109
"Cc1cnccc1-c1cccc(C(C)(C)N(CCCNC(=O)CS(=O)(=O)O)S(=O)(=O)c2cccc(Cl)c2C)c1 [Compound 31AB, 2-((3-(3-chloro-2-methyl-N-(2-(3-(3-methylpyridin-4-yl)phenyl)propan-2-yl)phenylsulfonamido)propyl)amino)-2-oxoethanesulfonic acid]",< 100,,< 100,35.8
"Cc1cnccc1-c1cccc([C@H](C)N(CCCC(=O)NCCS(=O)(=O)NCC(=O)O)S(=O)(=O)c2cccc(Cl)c2Cl)c1 [Compound 36AA, (S)-2-(4-(3-chloro-N-(1-(3-(3-methylpyridin-4-yl)phenyl)ethyl)-2-chloro-phenylsulfonamido)butanamido)ethanesulfonamido acetic acid]",< 100,,< 100,7.5
"Cc1cnccc1-c1cccc([C@H](C)N(CCCC(=O)NCCNS(N)(=O)=O)S(=O)(=O)c2cccc(Cl)c2C)c1 [Compound 37, (S)-4-(3-chloro-2-methyl-N-(1-(3-(3-methylpyridin-4-yl)phenyl)ethyl)phenylsulfonamido)-N-(2-(sulfamoylamino)ethyl)butanamide]",< 100,,< 100,122
"CCc1cnccc1-c1cccc(C2CN(C(=O)CCCC(=O)O)CCN2S(=O)(=O)c2cccc(Cl)c2C)c1 (stereo not drawn) [Compound 46AA, 5-(4-((3-chloro-2-methylphenyl)sulfonyl)-3-(3-(3-ethylpyridin-4-yl)phenyl)piperazin-1-yl)-5-oxopentanoic acid]",< 100,,< 100,1.6
"CCc1cnccc1-c1cccc(C2CN(C(=O)COCC(=O)O)CCN2S(=O)(=O)c2cccc(Cl)c2C)c1 (stereo not drawn) [Compound 46AB, 2-(2-(4-((3-chloro-2-methylphenyl)sulfonyl)-3-(3-(3-ethylpyridin-4-yl)phenyl)piperazin-1-yl)-2-oxoethoxy)acetic acid]",< 100,,< 100,4.5
"CCc1cnccc1-c1cccc(C2CN(S(=O)(=O)CC(=O)O)CCN2S(=O)(=O)c2cccc(Cl)c2C)c1 (stereo not drawn) [Compound 47, 2-((4-((3-Chloro-2-methylphenyl)sulfonyl)-3-(3-(3-ethylpyridin-4-yl)phenyl)piperazin-1-yl)sulfonyl)acetic acid]",< 100,,< 100,228
"CCc1cnccc1-c1cccc(C2CN(CCCC(=O)O)CCN2S(=O)(=O)c2cccc(Cl)c2C)c1 (stereo not drawn) [Compound 52AA, 4-(4-((3-chloro-2-methylphenyl)sulfonyl)-3-(3-(3-ethylpyridin-4-yl)phenyl)piperazin-1-yl)butanoic acid]",< 100,,< 100,647
